Measurements: patent publication US20220331348A1, “METHOD OF PREPARING PENTACYCLIC TRITERPENOID SAPONINS AND DRUG COMPOSITION” (CHINA PHARMACEUTICAL UNIVERSITY, priority 2019, published 2022)

How the values were obtained:
AMPK in Huh-7 cells = assay: Activation activity on AMPK in Huh-7 cells (Western Blot); format: cell-based; settings: 12 h, relative to DMSO = 1
Protocol: The activation activity of a compound on AMPK in Huh-7 cells was detected by using Western Blot.
Cell culture conditions: Huh-7 cells were cultured in an incubator with 5% CO2 at 37° C. in DMEM complete medium (containing 10% fetal calf serum and 1% streptomycin/penicillin).
Antibody: anti-AMPK (CST, 2532S); anti-pAMPK (CST, 2535S).
Western Blot experiment: the influence of the compound on phosphorylation level of the AMPK in the Huh-7 cells was detected: cells with more than 90% cells alive were taken for the experiment. In a 12-well plate, the Huh-7 cells were plated in the plate at 250000 cells per well, the plate was placed in the incubator with 5% CO2 at 37° C. for culture, an original culture medium was discarded after 12 h, a complete medium containing the pentacyclic triterpenoid saponin was added, a final concentration of subject pentacyclic triterpenoid saponin was set to be 10 μM, and an administration time was set to be 12 h. A positive control compound employs AICAR (100 μM), metformin (70 μM) or A-769662 (100 μM). Then proteins were extracted for Western Blot detection.
Experimental result: a Western Blot experimental result was subjected to gray scale scanning, a p-AMPK/AMPK ratio of negative control DMSO was defined as 1, and a p-AMPK/AMPK ratio of the subject compound was a relative ratio of a negative control group. The larger the numerical value was, the stronger the activation activity of the AMPK of the compound was.

[1] = test system: ulcerative colitis model mice induced by DSS; assay: Dextran sulphate sodium salt (DSS) induced ulcerative colitis model mice; format: in vivo, mouse; settings: DSS-induced mice; dose not given; vs model group
Protocol: C57BL/6 male mice with 6-8 weeks old were selected; a control group was fed with purified water; and a model group, a treatment group and a positive control group were fed with purified water containing 2% dextran sulphate sodium salt (DSS) (36000-50000 M.Wt) for 7 days and then with the purified water for 3 days, and drug intervention was conducted at the same time. The mice in the control group and the model group were orally administered with carboxymethyl cellulose sodium as a placebo, the mice in the treatment group were orally administered with the ziyuglycoside II (purchased from Shanghai Boka Chemistry Technology Co., Ltd) (with a dosage of 5 mg/kg), and the mice in the positive control group were orally administered with 5-aminosalicylic acid as a clinical drug (5-ASA, purchased from Shanghai Sangon Biological Engineering Co., Ltd) (with a dosage of 100 mg/kg). In the administration process, weight changes, feces characters and hematochezia conditions of the mice were observed and recorded every day and were scored, and disease activity indexes were calculated (Disease activity index, DAI).
A scoring rule and a calculation method were as follows: DAT=(weight score+diarrhea score+occult blood score)/3, wherein weight score: 0 (weight gained or unchanged), 1 (weight lost by 1-5%), 2 (weight lost by 6-10%), 3 (weight lost by 11-15%), 4 (weight lost by 15% or above); diarrhea score: 0 (normal feces), 2 (soft feces), 4 (feces sticking anuses or diarrhea); and occult blood score: 0 (negative occult blood), 2 (positive occult blood), and 4 (visible bleeding). Comparing differences in DAI of various groups, it can be known that the ziyuglycoside II has significant prevention and treatment effects on ulcerative colitis of the mice modeled by the dextran sulphate sodium salt (DSS).
The above mice were sacrificed by cervical dislocation at day 11, colon tissues were harvested, lengths of the colon tissues were measured for statistical summary, and differences in colon length of various groups were compared, from which, the ziyuglycoside II has significant prevention and treatment effect on the ulcerative colitis model mice.
Middle segments, with lengths of about 1 cm, of the colon tissues of the above mice were selected, soaked in a formalin solution for fixing overnight, embedded with paraffin and sliced, and the slices were subjected to HE staining. […] Particularly, compared with the positive drug group, the ziyuglycoside II has the advantage of maintaining a thickness of a muscular layer.
10 mg of proximal rectum segments of the colon tissues of the above mice were selected, PBS was added for homogenization, and centrifugation was conducted for taking a supernate. The supernate was subjected to ELISA detection, and protein quantification was conducted for inflammatory factors TNF-α and IL-lb.
10 mg of colon tissues of the above mice were selected for detection of ROS therein.
When the ulcerative colitis occurs, the inflammatory factors may destruct tight junction between intestinal tracts, and destruction of the tight junction enables functions of mucosal barriers to be lost and accelerates development of the diseases. 5 mg of colon tissues of the above mice were selected for qPCR analysis. […] This hints that the ziyuglycoside II further has the efficacy of increasing the expression level of the tight junction and then protecting a structure of each colon. […] Therefore, the ziyuglycoside II is expected to be useful for preparing the drug for preventing or treating the inflammatory bowel diseases such as the ulcerative colitis.

[2] = test system: TNBS modeled Crohn's disease model mice; assay: 2,4,6-trinitrobenzene sulfonic acid (TNBS) modeled Crohn's disease model mice; format: in vivo, mouse; settings: dose not given
Protocol: C57BL/6 male mice with 6-8 weeks old were selected and randomly divided into a control group, a mode group, a treatment group and a positive control group. Expect for the control group, after the mice in the rest groups anesthetized with isoflurane, hoses were carefully inserted into colons of the mice from anuses, and […] of 1.5% 2,4,6-trinitrobenzene sulfonic acid (TNBS) was slowly injected. Before the hoses were pulled out, the mice were placed upside down for 1 min. First intragastric administration was conducted at the day of enema treatment, the mice in the control group and the model group were orally administered with carboxymethyl cellulose sodium as a placebo, the mice in the treatment group were orally administered with the ziyuglycoside II (purchased from Shanghai Boka Chemistry Technology Co., Ltd) (with a dosage of 5 mg/kg), and the mice in the positive drug group were orally administered with 5-aminosalicylic acid as a clinical drug (5-ASA, purchased from Shanghai Sangon Biological Engineering Co., Ltd) (with a dosage of 100 mg/kg). Administration was continuously conducted for 7 days. In the administration process, the states of the mice were observed every day, and weight changes of the mice were recorded.
Differences in weight change of the mice in various groups were compared, from which, ziyuglycoside II has the treatment effect on the 2, 4, 6-trinitrobenzene sulfonic acid (TNBS) modeled Crohn's disease model mice.
The above mice were sacrificed by cervical dislocation at day 8, colon tissues were harvested, lengths of the colon tissues were measured for statistical summary, and differences in colon length of various groups were compared, from which, the ziyuglycoside II has significant treatment effect on the Crohn's disease model mice. […] 10 mg of proximal rectum segments of the colon tissues of the above mice were selected, PBS was added for homogenization, and centrifugation was conducted for taking a supernate. The supernate was subjected to ELISA detection, and protein quantification was conducted for inflammatory factors TNF- and IL-1. […] Myeloperoxidase (MPO) is an enzyme specific to neutrophils, and the amount of the neutrophils in the intestinal tracts may be reflected by detecting the MPO level. 5 mg of proximal rectum segments of the colon tissues of the above mice were selected, PBS was added for homogenization, and the content of the MPO in a homogenate was detected with a MPO kit (purchased from Nanjing Jiancheng Bioengineering Institute). […] Therefore, the ziyuglycoside II is expected to be useful for preparing the drug for preventing or treating the inflammatory bowel diseases such as the Crohn's disease.

## CC1(C)CC[C@]2(C(=O)O)CC[C@]3(C)C(=CCC4[C@@]5(C)CC[C@H](O[C@@H]6O[C@H](C(=O)O)[C@@H](O)[C@H](O)[C@H]6O)C(C)(C)[C@@H]5CC[C@]43C)[C@@H]2C1 (stereo partly shown) [(III), calunduloside E]
AMPK in Huh-7 cells; 10 μM, Western Blot gray scale
  pAMPK/AMPK ratio: 1.54

## CC1(C)CC[C@]2(C(=O)O)CC[C@]3(C)C(=CC[C@@H]4[C@@]5(C)CC[C@H](O[C@@H]6O[C@H](C(=O)O)[C@@H](O)[C@H](O[C@@H]7OC[C@@H](O)[C@H](O)[C@H]7O)[C@H]6O)C(C)(C)[C@@H]5CC[C@]43C)[C@@H]2C1 [(IV), kochioside Ic]
AMPK in Huh-7 cells; 10 μM, Western Blot gray scale
  pAMPK/AMPK ratio: 1.75

## CC1(C)CC[C@]2(C(=O)O)CC[C@]3(C)C(=CCC4[C@@]5(C)CC[C@H](O[C@@H]6OC[C@H](O)[C@H](O)[C@H]6O)C(C)(C)[C@@H]5CC[C@]43C)[C@@H]2C1 (stereo partly shown) [(XIV), asperosaponin C]
AMPK in Huh-7 cells; 10 μM, Western Blot gray scale
  pAMPK/AMPK ratio: 2.23

## C[C@@H]1OC(O[C@H]2[C@H](O[C@H]3CC[C@]4(C)[C@H]5CC=C6[C@@H]7CC(C)(C)CC[C@]7(C(=O)O)CC[C@@]6(C)[C@]5(C)CC[C@H]4C3(C)C)OC[C@H](O)[C@@H]2O)[C@H](O)[C@H](O)[C@H]1O (stereo partly drawn) [(XV), β-hederin]
AMPK in Huh-7 cells; 10 μM, Western Blot gray scale
  pAMPK/AMPK ratio: 2.87

## CC1(C)CC[C@]2(C(=O)O)CC[C@]3(C)C(=CC[C@@H]4[C@@]5(C)CC[C@H](O[C@@H]6O[C@H](CO)[C@@H](O)[C@H](O)[C@H]6O)C(C)(C)C5CC[C@]43C)[C@H]2C1 (stereo partly shown) [(XVI), hederin A2]
AMPK in Huh-7 cells; 10 μM, Western Blot gray scale
  pAMPK/AMPK ratio: 2.05

## NC(=O)c1ncn([C@@H]2O[C@H](CO)[C@@H](O)[C@H]2O)c1N [AICAR, reference compound]
AMPK in Huh-7 cells; positive control 100 μM
  pAMPK/AMPK ratio: 1.47

## N#Cc1c(O)c2c(-c3ccc(-c4ccccc4O)cc3)csc2[nH]c1=O [Compound A-769662, A-769662, reference compound]
AMPK in Huh-7 cells; positive control 100 μM
  pAMPK/AMPK ratio: 2.59

## CN(C)C(=N)N=C(N)N [Metformin, reference compound]
AMPK in Huh-7 cells; positive control 70 μM
  pAMPK/AMPK ratio: 1.22

## reinioside C [(IX)]
AMPK in Huh-7 cells; 10 μM, Western Blot gray scale
  pAMPK/AMPK ratio: 1.88
[1]
  DAI scores of the treatment group: obviously lower than those of the model group
[2]
  colon length of the treatment group compared with the control group: nearly no difference
[2]; vs model group
  expression level of inflammatory factor IL-1β: significantly lower than those of the model group
  expression level of inflammatory factor TNF-α: significantly lower than those of the model group
